Assays:
[1] = target: T1, human μ-calpain (Homo sapiens, UniProt P07384); experiment: Enzymatic calpain inhibition assay; type: biochemical; settings: substrate Suc-Leu-Tyr-AMC, read-out: Calp I IC50
T1 construct: purchased Calbiochem
T1 sequence (P07384 1-714): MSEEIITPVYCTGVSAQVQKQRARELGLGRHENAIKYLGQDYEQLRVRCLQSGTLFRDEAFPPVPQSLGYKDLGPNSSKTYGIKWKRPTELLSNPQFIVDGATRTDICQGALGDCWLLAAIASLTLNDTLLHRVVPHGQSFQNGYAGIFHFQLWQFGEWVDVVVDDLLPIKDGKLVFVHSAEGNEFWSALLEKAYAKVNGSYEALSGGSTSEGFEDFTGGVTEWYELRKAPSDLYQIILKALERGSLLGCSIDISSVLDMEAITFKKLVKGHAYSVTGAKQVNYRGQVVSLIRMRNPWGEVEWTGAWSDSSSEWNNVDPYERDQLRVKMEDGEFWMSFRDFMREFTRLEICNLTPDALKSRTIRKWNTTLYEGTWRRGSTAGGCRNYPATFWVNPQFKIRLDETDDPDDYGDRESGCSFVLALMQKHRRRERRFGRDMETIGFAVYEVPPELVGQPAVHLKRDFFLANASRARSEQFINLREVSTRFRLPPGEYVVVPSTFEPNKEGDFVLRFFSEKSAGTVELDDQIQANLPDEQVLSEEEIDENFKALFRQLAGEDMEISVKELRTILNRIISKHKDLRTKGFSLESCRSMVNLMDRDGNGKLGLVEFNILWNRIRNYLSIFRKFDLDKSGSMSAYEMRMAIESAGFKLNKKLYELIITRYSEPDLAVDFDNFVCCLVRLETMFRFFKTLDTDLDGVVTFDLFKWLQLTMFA
T1 sequence (P04632 1-268 partner): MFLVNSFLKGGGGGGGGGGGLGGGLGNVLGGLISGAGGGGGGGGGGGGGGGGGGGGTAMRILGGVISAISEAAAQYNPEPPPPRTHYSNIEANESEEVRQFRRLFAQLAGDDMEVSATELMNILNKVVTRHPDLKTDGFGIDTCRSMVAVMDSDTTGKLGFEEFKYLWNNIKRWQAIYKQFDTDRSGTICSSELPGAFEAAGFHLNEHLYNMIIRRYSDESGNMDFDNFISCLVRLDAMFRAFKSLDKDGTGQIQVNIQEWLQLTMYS
Method: The Ki value was also determined in some cases. These criteria were used to measure the inhibitory effect of the compounds (I) on calpain I, calpain II and cathepsin B.
Enzymatic Calpain Inhibition Assay
The inhibitory properties of calpain inhibitors are tested in 100 μl of a buffer containing 100 mM imidazole pH 7.5, 5 mM L-Cystein-HCl, 5 mM CaCl2, 250 μM of the calpain fluorogenic substrate Suc-Leu-Tyr-AMC (Sigma) (Sasaki et al., J. Biol. Chem., 1984, 259, 12489-12949) dissolved in 2.5 μl DMSO and 0.5 μg of human μ-calpain (Calbiochem). The inhibitors dissolved in 1 μl DMSO are added to the reaction buffer. The fluorescence of the cleavage product 7-amino-4-methylcoumarin (AMC) is followed in a SPECTRAmax GEMINI XS (Molecular Device) fluorimeter at λex=360 nm and λem=440 nm at 30° C. during 30 min at intervals of 30 sec in 96-well plates (Greiner). The initial reaction velocity at different inhibitor concentrations is plotted against the inhibitor concentration and the IC50 values determined graphically.

[2] = system: cellular calpains in C2C12 myoblasts; experiment: Calpain inhibition assay in C2C12 myoblasts; type: cell-based; settings: 2 h incubation, calcium ionophore Br-A-23187, read-out: Calp I IC50 Myoblast
Method: Calpain Inhibition Assay in C2C12 Myoblasts
This assay is aimed at monitoring the ability of the substance to inhibit cellular calpains. C2C12 myoblasts are grown in 96-well plates in growth medium (DMEM, 20% foetal calf serum) until they reach confluency. The growth medium is then replaced by fusion medium (DMEM, 5% horse serum). 24 hours later the fusion medium is replaced by fusion medium containing the test substances dissolved in 1 μl DMSO. After 2 hours of incubation at 37° C. the cells are loaded with the calpain fluorogenic substrate Suc-Leu-Tyr-AMC at 400 μM in 50 μl of a reaction buffer containing 135 mM NaCl; 5 mM KCl; 4 mM CaCl2; 1 mM MgCl2; 10 mM Glucose; 10 mM HEPES pH 7.25 for 20 min at room temperature. The calcium influx, necessary to activate the cellular calpains, is evoked by the addition of 50 μl reaction buffer containing 20 μM of the calcium ionophore Br-A-23187 (Molecular Probes). The fluorescence of the cleavage product AMC is measured as described above during 60 min at 37° C. at intervals of 1 min. The IC50 values are determined as described above. Comparison of the IC50 determined in the enzymatic calpain inhibition assay to the IC50 determined in the C2C12 myoblasts calpain inhibiton assay, allows to evaluate the cellular uptake or the membrane permeability of the substance.

[3] = system: Primary fibroblasts from donors with Friedreich Ataxia (FRDA); experiment: BSO assay (cell viability under BSO-induced oxidative stress); type: cell-based, human; settings: 24 h preincubation, 1 mM BSO; for EC50: Homo sapiens, Fibroblast
Method: Primary fibroblasts were derived from donors with molecular diagnosis for Friedreich Ataxia (FRDA) and control donors with no mitochondrial disease. Cell lines were obtained from Coriell Cell Repositories (Camden, N.J.; catalog numbers GM04078, GM08402 and GM08399 respectively). All cell types were diagnosed on the molecular level for intronic […] triplet repeat length of at least 400-450 repeats using a PCR-based method. Experiments were carried out as described in the literature (M. L. Jauslin et al., Human Mol. Genet., 2002, 11, 3055-3063): Cells were seeded in microtiter plates at a density of 4'000 cells per 100 μl in growth medium consisting of 25% (v/v) M199 EBS and 64% (v/v) MEM EBS without phenol red (Bioconcept, Allschwil, Switzerland) supplemented with 10% (v/v) fetal calf serum (PAA Laboratories, Linz, Austria), 100 U/ml penicillin, 100 μg/ml streptomycin (PAA Laboratories, Linz, Austria), 10 μg/ml insulin (Sigma, Buchs, Switzerland), 10 ng/ml EGF (Sigma, Buchs, Switzerland), 10 ng/ml bFGF (PreproTech, Rocky Hill, N.J.) and 2 mM glutamine (Sigma, Buchs, Switzerland). The cells were incubated in the presence of various test compounds for 24 h before addition of L-buthionine-(S,R)-sulfoximine (BSO) to a final concentration of 1 mM. Cell viability was measured after the first signs of toxicity appeared in the BSO-treated controls (typically after 16 to 48 h). The cells were stained for 60 min at room temperature in PBS with 1.2 μM calcein AM and 4 μM ethidium homodimer (Live/Dead assay, Molecular Probes, Eugene, Oreg.). Fluorescence intensity was measured with a Gemini Spectramax XS spectrofluorimeter (Molecular Devices, Sunnyvale, Calif.) using excitation and emission wavelengths of 485 nm and 525 nm respectively.

Row | Compound | IC50 [1] [nM] | IC50 [2] [nM] | EC50 [3] [nM] | BSO EC50 [3]
1 | CCNC(=O)C(=O)[C@H](Cc1cccs1)NC(=O)[C@@H](NC(=O)CCCCC1CCSS1)C(C)C (stereo partly drawn) [Example 145] | 100 | 6000 | 1500 | –
2 | CCNC(=O)C(=O)[C@H](Cc1cccs1)NC(=O)[C@H](CC(C)C)NC(=O)CCCCC1CCSS1 (stereo partly drawn) [Example 147] | 40 | 2500 | 1500 | –
3 | CCNC(=O)C(=O)[C@@H](NC(=O)[C@@H](NC(=O)CCCCC1CCSS1)C(C)C)c1ccccc1 (stereo partly drawn) [Example 153] | 400 | 2000 | 2500 | –
4 | CCNC(=O)C(=O)[C@H](Cc1ccc(Cl)cc1)NC(=O)[C@@H](NC(=O)CCCCC1SC[C@@H]2NC(=O)N[C@H]12)C(C)C (stereo partly drawn) [Example 159] | 100 | 5000 | – | inactive
5 | CCNC(=O)C(=O)[C@H](Cc1ccc(OC)cc1)NC(=O)[C@@H](NC(=O)CCCCC1SC[C@@H]2NC(=O)N[C@H]12)C(C)C (stereo partly drawn) [Example 165] | 85 | 11000 | 60000 | –
6 | CCNC(=O)C(=O)[C@H](Cc1ccc(Cl)cc1)NC(=O)[C@@H](NC(=O)CCNC(=O)CCCCC1CCSS1)C(C)C (stereo partly drawn) [Example 172] | 40 | 30000 | 3000 | –
7 | CCNC(=O)C(=O)[C@H](Cc1ccc(Cl)cc1)NC(=O)[C@@H](NC(=O)CCNC(=O)CCCCC1CCS[S+]1[O-])C(C)C (stereo partly drawn) [Example 173] | 200 | 40000 | 25000 | –
8 | CCNC(=O)C(=O)[C@H](Cc1ccc(Cl)cc1)NC(=O)[C@@H](NC(=O)CCCNC(=O)CCCCC1CCSS1)C(C)C (stereo partly drawn) [Example 174] | 20 | 2500 | 6000 | –
9 | CCNC(=O)C(=O)[C@H](Cc1ccc(Cl)cc1)NC(=O)[C@@H](NC(=O)CCCCNC(=O)CCCCC1CCSS1)C(C)C (stereo partly drawn) [Example 175] | 100 | 20000 | > 100000 | –

Second part, led by results:

Row | IC50 [1] [nM] | IC50 [2] [nM] | Compound | EC50 [3] [nM] | BSO EC50 [3]
10 | 40 | 2500 | CCNC(=O)C(=O)[C@H](Cc1ccc(Cl)cc1)NC(=O)[C@H](CC(C)C)NC(=O)CNC(=O)CCCCC1CCSS1 (stereo partly drawn) [Example 176] | 20000 | –
11 | 9 | 2500 | CCNC(=O)C(=O)[C@H](Cc1ccc(Cl)cc1)NC(=O)[C@H](CC(C)C)NC(=O)CNC(=O)CCCCC1CCS[S+]1[O-] (stereo partly drawn) [Example 177] | 6000 | –
12 | 100 | 5500 | CCNC(=O)C(=O)[C@H](Cc1ccc(Br)cc1)NC(=O)[C@@H](NC(=O)CNC(=O)CCCCC1CCS[S+]1[O-])C(C)C (stereo partly drawn) [Example 184] | 10000 | –
13 | 40 | 1500 | CCNC(=O)C(=O)[C@H](Cc1ccc(Br)cc1)NC(=O)[C@H](CC(C)C)NC(=O)CNC(=O)CCCCC1CCSS1 (stereo partly drawn) [Example 186] | 5000 | –
14 | 15 | 7500 | CCNC(=O)C(=O)[C@H](Cc1ccc(Br)cc1)NC(=O)[C@H](CC(C)C)NC(=O)CNC(=O)CCCCC1CCS[S+]1[O-] (stereo partly drawn) [Example 187] | 20000 | –
15 | 370 | 3200 | CCNC(=O)C(=O)[C@H](Cc1ccc(OC)cc1)NC(=O)[C@@H](NC(=O)C1(NC(=O)CCCCC2CCSS2)CC1)C(C)C (stereo partly drawn) [Example 192] | 1500 | –
16 | 170 | 1500 | CCNC(=O)C(=O)[C@H](Cc1ccc(OC)cc1)NC(=O)[C@@H](NC(=O)C1(NC(=O)CCCCC2CCSS2)CCCCC1)C(C)C (stereo partly drawn) [Example 195] | 5000 | –
17 | > 1000 | 400 | CCNC(=O)C(=O)[C@H](Cc1ccc(OC)cc1)NC(=O)[C@@H](NC(=O)c1ccc(NC(=O)CCCCC2CCSS2)cc1)C(C)C (stereo partly drawn) [Example 196] | 2000 | –
18 | 26 | 1800 | CCNC(=O)C(=O)[C@H](Cc1ccc(OC)cc1)NC(=O)[C@@H](NC(=O)c1ccccc1NC(=O)CCCCC1CCSS1)C(C)C (stereo partly drawn) [Example 198] | 8000 | –
19 | 26 | 1200 | CCNC(=O)C(=O)[C@H](Cc1ccc(OC)cc1)NC(=O)[C@@H](NC(=O)c1ccccc1NC(=O)CCCCC1CCS[S+]1[O-])C(C)C (stereo partly drawn) [Example 199] | 4000 | –

From patent US20060258598A1, “Alpha-keto carbonyl calpain inhibitors” (priority 2003, published 2006)
